Common to all, as to type: in vivo
Assay [1] has as its system Italian ryegrass (Lolium multiflorum). As to the kind of experiment: Test C postemergence. The method, boiled down: (§1)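 Each compound was dissolved in a non-phytotoxic solvent system containing a surfactant and sprayed either on freshly planted seeds (preemergence) or on young plants, 2 to 18 cm high (postemergence). Ratings after 12 to 14 greenhouse days ran from 0, no effect, to 100, complete control.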

The test system of assay [2] is blackgrass (Alopecurus myosuroides). As to the kind of experiment: Test C postemergence. The method, boiled down:
as §1

Assay [3] has as its system canary grass (Phalaris minor). As to the kind of experiment: Test C postemergence. The method, boiled down: as §1
In assay [4] the test system is downy brome (Bromus tectorum). As to the kind of experiment: Test C postemergence. The method, boiled down: as §1
For assay [5], the system named is green foxtail (Setaria viridis). As to the kind of experiment: Test C postemergence. The method, boiled down:
as §1

For assay [6], the system named is wheat (Triticum aestivum). The assay can be described thus: Test C postemergence. The method, boiled down:
as §1

The test system of the next assay is wild oat (Avena fatua). As to the kind of experiment: Test C postemergence. The method, boiled down:
as §1

Assay [7] concerns windgrass (Apera spica-venti). As to the kind of experiment: Test C postemergence. The method, boiled down: as §1
In assay [8] the test system is winter barley (Hordeum vulgare). As to the kind of experiment: Test C postemergence. The method, boiled down: as §1
Assay [9] has as its system barnyardgrass (Echinochloa crus-galli). The assay can be described thus: Test B flooded paddy test. The following applies: Rate 1000 g/ha, scale of 0 to 100 where 0 is no effect and 100 is complete control, visually evaluated after 13 to 15 days. The method, boiled down: (§2)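 Visual injury score on a 0–100 scale, where 100 means complete control, assigned against untreated controls 13 to 15 days after plants at the 2-leaf stage were treated under flooded paddy conditions.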

Assay [10] concerns duck salad (Heteranthera limosa). As to the kind of experiment: Test B flooded paddy test. The following applies: Rate 1000 g/ha, scale of 0 to 100 where 0 is no effect and 100 is complete control, visually evaluated after 13 to 15 days. The method, boiled down:
as §2

For the next assay, the system named is rice (Oryza saliva). The assay can be described thus: Test B flooded paddy test. The following applies: Rate 1000 g/ha, scale of 0 to 100 where 0 is no effect and 100 is complete control, visually evaluated after 13 to 15 days. The method, boiled down: as §2
Assay [11] has as its system smallflower flatsedge (Cyperus difformis). As to the kind of experiment: Test B flooded paddy test. The following applies: Rate 1000 g/ha, scale of 0 to 100 where 0 is no effect and 100 is complete control, visually evaluated after 13 to 15 days. The method, boiled down:
as §2

[12] abbreviates: Rate 250 g/ha, scale 0 to 100 (0 no effect, 100 complete control).
Setting [13] is: Rate 500 g/ha, scale 0 to 100 (0 no effect, 100 complete control).
Setting [14] is: Rate 125 g/ha, scale 0 to 100, 0 no effect, 100 complete control.

The values below come from US7138361B2, “Herbicidal heterocycles” (E. I. du Pont de Nemours and Company, priority 2000, dated 2006).

On to `COc1cc(N2CCC(n3ccc(C(C)(C)C)n3)C2=O)ccc1Cl` (stereo not shown) [Compound 117], for which the “Plant response rating, Ryegrass” value in assay [1] (Rate 62 g/ha, scale 0 to 100) came out at 10; in [1] (setting [12]) it was 30; in [1] (setting [13]), 60. Further, the “Plant response rating, Blackgrass” value in [2] (Rate 62 g/ha, scale 0 to 100) was 0; in assay [2] (setting [14]), 0; in [2] (setting [12]), 20; in [2] (setting [13]) it was 40. The “Plant response rating, Canarygrass” value in assay [3] (Rate 62 g/ha, scale 0 to 100) is recorded as 0; in assay [3] (setting [14]), 0; in assay [3] (setting [12]) it was 20; in assay [3] (setting [13]) it was 20. Moreover, the “Plant response rating, Downy Brome” value in assay [4] (Rate 62 g/ha, scale 0 to 100) was 20; in [4] (setting [14]), 40; in [4] (setting [13]), 40. Further, the “Plant response rating, Foxtail, Green” value in [5] (Rate 62 g/ha, scale 0 to 100) is 10; in [5] (setting [12]) it was 30; in assay [5] (setting [13]) it was 50. In addition, the “Plant response rating, Wheat” value in assay [6] (Rate 62 g/ha, scale 0 to 100) stood at 10; in [6] (setting [12]), 10; in assay [6] (setting [13]) it was 20. Moreover, the “Plant response rating, Wild Oat” value in the assay with wild oat (Avena fatua) (Rate 62 g/ha, scale 0 to 100) is 30; in the assay on wild oat (Avena fatua) (setting [12]) it was 30; with wild oat (Avena fatua) (setting [13]), 30. In addition, the “Plant response rating, Windgrass” value worked out at 20 in assay [7] (Rate 62 g/ha, scale 0 to 100); 40 in assay [7] (setting [12]); 60 in assay [7] (setting [13]). The “Plant response rating, Barley, Winter” value is given as 0 in [8] (Rate 62 g/ha, scale 0 to 100); 0 in assay [8] (setting [14]); 20 in assay [8] (setting [13]).
As to `CC(C)(C)c1ccn(C2CCN(c3cccc(C(F)(F)F)c3)C2=S)n1` (stereo not shown) [Compound 22], in assay [9], the “Plant response rating, Barnyardgrass” value is on record as 100. Moreover, the “Plant response rating, Ducksalad” value in assay [10] worked out at 100. In the assay with rice (Oryza saliva), the “Plant response rating, Rice” value came out at 90. The “Plant response rating, Flatsedge” value in [11] turned out to be 100.
Regarding `Cc1cc(C)nc(N2CCC(n3ccc(C(C)(C)C)n3)C2=O)c1` (stereo not shown) [Compound 138], the “Plant response rating, Barnyardgrass” value in assay [9] is recorded as 100. The “Plant response rating, Ducksalad” value in assay [10] amounted to 90. For the same molecule, in the assay with rice (Oryza saliva), the “Plant response rating, Rice” value is on record as 90. Also, in assay [11], the “Plant response rating, Flatsedge” value amounted to 90.
